Measurements published in patent EP4745135A1 (Gluetacs Therapeutics (Shanghai) Co., Ltd., priority 2023, dated 2025).

What was measured:
GSPT1 = assay: Western blot, degradation of substrate protein in hPBMCs; type: cell-based, Human
[1] = biological target: T1, human Cereblon WT GST-tagged protein (Homo sapiens, UniProt Q96SW2); assay: CRBN-binding affinity, HTRF (CEREBLON BINDING kit); conditions: for inhibition at 0.5 µM: read-out: Inhibition Rate at 0.5 µM (%); for inhibition at 2 µM: read-out: Inhibition Rate at 2 µM (%); for IC50: CRBN binding, HTRF, 3 hours at room temperature, read-out: HTRF IC50
T1 construct: purchased CISBIO 64BDCRBNPEH

WEE1 = biological target: T2, WEE1 (Homo sapiens, UniProt P30291+Q96SW2); assay: Western blot, degradation of substrate protein in hPBMCs; type: cell-based
T2 construct: effects of the compounds of the present disclosure on the expression of target proteins in cells; endogenous in cells; host or cells: human PBMCs (Milecell Biotechnologies)

IKZF3 = biological target: T3, IKZF3 (Homo sapiens, UniProt Q96SW2+Q9UKT9); assay: as above; type: cell-based
T3 construct: effects of the compounds of the present disclosure on the expression of target proteins in cells; endogenous in cells; host or cells: human PBMCs (Milecell Biotechnologies)

IKZF2 = biological target: T4, IKZF2 (Homo sapiens, UniProt Q96SW2+Q9UKS7); assay: as above; type: cell-based
T4 construct: effects of the compounds of the present disclosure on the expression of target proteins in cells; endogenous in cells; host or cells: human PBMCs (Milecell Biotechnologies)

IKZF1 = biological target: T5, IKZF1 (Homo sapiens, UniProt Q13422+Q96SW2); assay: as above; type: cell-based
T5 construct: effects of the compounds of the present disclosure on the expression of target proteins in cells; endogenous in cells; host or cells: human PBMCs (Milecell Biotechnologies)

CK1α = biological target: T6, CK1α (Homo sapiens, UniProt P48729+Q96SW2); assay: as above; type: cell-based
T6 construct: effects of the compounds of the present disclosure on the expression of target proteins in cells; endogenous in cells; host or cells: human PBMCs (Milecell Biotechnologies)

[2] = test system: Human myeloid monocytic leukemia cell (MV-4-11); assay: Tumor cell proliferation inhibition (CellTiter-Meiluncell luminescent cell viability assay); conditions: MV4-11, 96 h; for inhibition at 0.01 µM: read-out: Inhibition Rate at 10 nM (%); for inhibition at 0.5 µM: read-out: Inhibition Rate at 500 nM (%)
[3] = test system: Human multiple myeloma cell (MM.1S); assay: as above; conditions: Homo sapiens, MM1.S, 96 h; for IC50: read-out: Inhibitory activity (IC50, nM) on tumor cell proliferation, MM.1S; for inhibition at 0.01 µM: read-out: Inhibition Rate at 10 nM (%); for inhibition at 0.5 µM: read-out: Inhibition Rate at 500 nM (%)
[4] = Western blot, 24 hours of compound treatment, compounds tested at 50 nM and 500 nM (concentration for the table not stated)
[5] = 24 hours treatment, compounds at 50 nM and 500 nM (concentration behind the class not stated)

T3 sequence (Q9UKT9 whole entry): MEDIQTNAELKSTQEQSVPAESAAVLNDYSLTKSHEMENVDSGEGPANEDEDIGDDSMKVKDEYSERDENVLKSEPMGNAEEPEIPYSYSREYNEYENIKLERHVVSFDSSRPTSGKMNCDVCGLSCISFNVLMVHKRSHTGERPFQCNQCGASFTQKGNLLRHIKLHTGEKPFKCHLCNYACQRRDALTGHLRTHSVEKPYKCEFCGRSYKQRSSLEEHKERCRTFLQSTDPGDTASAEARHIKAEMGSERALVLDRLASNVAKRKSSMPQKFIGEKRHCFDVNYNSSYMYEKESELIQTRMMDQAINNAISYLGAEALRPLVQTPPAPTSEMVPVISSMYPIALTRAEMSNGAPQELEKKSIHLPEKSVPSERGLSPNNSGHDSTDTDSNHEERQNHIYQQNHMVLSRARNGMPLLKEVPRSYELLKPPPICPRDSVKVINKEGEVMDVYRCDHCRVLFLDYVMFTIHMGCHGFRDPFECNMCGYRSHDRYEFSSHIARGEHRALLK
T3 sequence (Q96SW2 whole entry): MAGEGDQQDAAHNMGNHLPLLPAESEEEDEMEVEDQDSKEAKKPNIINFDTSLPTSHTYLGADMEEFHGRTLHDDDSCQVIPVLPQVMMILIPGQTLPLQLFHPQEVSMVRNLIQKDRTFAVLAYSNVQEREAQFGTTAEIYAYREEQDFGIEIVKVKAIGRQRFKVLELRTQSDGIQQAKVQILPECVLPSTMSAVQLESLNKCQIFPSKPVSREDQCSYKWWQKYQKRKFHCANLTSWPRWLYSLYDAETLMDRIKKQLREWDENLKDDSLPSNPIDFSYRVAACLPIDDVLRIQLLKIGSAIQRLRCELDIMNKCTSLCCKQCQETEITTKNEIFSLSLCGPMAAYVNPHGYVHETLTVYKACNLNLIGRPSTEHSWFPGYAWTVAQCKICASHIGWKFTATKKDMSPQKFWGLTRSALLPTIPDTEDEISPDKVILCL
T3 sequence (Q16531 whole entry partner): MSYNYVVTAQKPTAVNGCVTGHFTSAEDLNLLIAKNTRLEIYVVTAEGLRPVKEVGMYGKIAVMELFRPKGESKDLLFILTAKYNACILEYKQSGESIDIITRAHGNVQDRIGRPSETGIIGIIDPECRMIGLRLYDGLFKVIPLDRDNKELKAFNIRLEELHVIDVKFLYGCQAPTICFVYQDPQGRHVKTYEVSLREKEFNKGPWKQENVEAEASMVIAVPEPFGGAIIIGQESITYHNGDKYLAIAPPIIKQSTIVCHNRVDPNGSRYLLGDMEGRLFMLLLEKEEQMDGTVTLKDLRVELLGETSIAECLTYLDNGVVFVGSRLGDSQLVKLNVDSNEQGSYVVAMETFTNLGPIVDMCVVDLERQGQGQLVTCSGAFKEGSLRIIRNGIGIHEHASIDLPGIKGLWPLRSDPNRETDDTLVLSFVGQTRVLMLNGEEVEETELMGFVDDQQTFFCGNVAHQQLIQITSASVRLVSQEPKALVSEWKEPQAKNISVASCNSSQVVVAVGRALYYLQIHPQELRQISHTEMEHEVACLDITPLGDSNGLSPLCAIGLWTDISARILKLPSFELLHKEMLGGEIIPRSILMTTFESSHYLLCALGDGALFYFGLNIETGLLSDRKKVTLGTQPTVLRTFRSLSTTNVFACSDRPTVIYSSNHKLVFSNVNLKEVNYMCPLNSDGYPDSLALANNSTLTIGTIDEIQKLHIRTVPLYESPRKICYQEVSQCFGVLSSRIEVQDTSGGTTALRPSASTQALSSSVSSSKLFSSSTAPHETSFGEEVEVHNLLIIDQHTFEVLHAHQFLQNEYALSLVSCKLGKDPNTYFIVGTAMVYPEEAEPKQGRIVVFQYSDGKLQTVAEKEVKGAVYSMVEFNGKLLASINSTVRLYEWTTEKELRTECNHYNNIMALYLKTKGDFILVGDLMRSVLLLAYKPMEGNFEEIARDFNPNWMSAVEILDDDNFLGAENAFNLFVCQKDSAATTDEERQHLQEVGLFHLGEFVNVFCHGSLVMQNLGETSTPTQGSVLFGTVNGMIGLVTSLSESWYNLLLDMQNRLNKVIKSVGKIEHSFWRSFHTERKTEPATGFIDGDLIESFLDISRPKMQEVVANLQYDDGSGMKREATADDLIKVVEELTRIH
T5 sequence (Q13422 whole entry): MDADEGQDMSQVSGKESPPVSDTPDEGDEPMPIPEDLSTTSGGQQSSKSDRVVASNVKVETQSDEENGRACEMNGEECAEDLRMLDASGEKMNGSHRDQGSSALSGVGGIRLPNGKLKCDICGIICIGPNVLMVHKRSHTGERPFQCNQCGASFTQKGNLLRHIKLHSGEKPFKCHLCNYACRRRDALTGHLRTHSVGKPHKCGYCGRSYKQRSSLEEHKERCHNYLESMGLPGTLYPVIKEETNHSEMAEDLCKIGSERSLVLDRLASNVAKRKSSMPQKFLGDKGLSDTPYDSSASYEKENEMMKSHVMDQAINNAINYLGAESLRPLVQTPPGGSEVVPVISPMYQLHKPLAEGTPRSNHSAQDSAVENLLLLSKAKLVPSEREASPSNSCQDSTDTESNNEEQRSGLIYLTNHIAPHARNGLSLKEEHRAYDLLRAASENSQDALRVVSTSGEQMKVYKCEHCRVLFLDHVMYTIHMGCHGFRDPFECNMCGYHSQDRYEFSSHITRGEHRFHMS
T5 sequence (Q96SW2 whole entry): as the sequence (Q96SW2 whole entry) above
T5 sequence (Q16531 whole entry partner): as the sequence (Q16531 whole entry partner) above
T4 sequence (Q9UKS7 whole entry): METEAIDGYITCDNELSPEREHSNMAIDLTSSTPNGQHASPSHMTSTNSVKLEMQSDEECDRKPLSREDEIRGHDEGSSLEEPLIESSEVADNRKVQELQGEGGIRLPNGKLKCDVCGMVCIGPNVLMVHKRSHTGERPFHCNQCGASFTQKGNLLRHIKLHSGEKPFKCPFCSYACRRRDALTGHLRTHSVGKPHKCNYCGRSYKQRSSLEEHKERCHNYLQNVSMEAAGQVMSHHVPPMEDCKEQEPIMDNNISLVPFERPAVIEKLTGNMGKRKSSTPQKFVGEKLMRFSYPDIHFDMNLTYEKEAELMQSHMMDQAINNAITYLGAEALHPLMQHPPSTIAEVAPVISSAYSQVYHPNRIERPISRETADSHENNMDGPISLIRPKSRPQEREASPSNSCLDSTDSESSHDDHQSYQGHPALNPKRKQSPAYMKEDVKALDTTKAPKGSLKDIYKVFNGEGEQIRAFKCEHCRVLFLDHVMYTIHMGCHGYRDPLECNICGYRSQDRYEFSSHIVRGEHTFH
T4 sequence (Q96SW2 whole entry): as the sequence (Q96SW2 whole entry) above
T4 sequence (Q16531 whole entry partner): as the sequence (Q16531 whole entry partner) above
T2 sequence (P30291 whole entry): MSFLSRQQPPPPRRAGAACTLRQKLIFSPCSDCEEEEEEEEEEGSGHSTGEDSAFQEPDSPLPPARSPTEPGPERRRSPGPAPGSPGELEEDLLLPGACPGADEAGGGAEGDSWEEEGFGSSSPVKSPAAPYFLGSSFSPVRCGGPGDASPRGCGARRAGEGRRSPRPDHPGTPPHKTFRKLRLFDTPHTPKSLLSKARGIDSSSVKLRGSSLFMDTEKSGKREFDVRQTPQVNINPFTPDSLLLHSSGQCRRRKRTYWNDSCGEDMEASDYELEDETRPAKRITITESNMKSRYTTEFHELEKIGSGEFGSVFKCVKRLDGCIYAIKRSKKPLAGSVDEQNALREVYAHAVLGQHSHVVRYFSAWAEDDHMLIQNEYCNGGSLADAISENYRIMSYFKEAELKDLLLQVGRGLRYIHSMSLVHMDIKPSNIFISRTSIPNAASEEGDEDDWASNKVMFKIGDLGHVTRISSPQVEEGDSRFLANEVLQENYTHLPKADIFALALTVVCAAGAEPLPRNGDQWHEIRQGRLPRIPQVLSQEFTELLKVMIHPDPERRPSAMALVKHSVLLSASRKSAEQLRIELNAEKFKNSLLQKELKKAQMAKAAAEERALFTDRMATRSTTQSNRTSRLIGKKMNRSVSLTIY
T2 sequence (Q96SW2 whole entry): as the sequence (Q96SW2 whole entry) above
T2 sequence (Q16531 whole entry partner): as the sequence (Q16531 whole entry partner) above
T1 sequence (Q96SW2 whole entry): as the sequence (Q96SW2 whole entry) above
T6 sequence (P48729 whole entry): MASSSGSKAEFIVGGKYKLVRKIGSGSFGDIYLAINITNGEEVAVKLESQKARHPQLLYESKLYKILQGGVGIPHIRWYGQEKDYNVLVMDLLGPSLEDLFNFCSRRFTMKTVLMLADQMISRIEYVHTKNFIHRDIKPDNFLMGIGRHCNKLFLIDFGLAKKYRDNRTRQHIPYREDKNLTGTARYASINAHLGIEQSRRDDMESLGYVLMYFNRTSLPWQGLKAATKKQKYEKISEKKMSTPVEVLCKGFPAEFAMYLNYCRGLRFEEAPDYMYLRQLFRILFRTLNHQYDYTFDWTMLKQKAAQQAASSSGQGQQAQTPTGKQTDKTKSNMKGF
T6 sequence (Q96SW2 whole entry): as the sequence (Q96SW2 whole entry) above
T6 sequence (Q16531 whole entry partner): as the sequence (Q16531 whole entry partner) above

Row | SMILES | GSPT1 substrate protein remaining % (GSPT1; [4]) | inhibition at 0.5 µM [1] [%] | inhibition at 2 µM [1] [%] | Wee1 substrate protein remaining % (WEE1; [4]) | IKZF3 substrate protein remaining % (IKZF3; [4]) | IKZF2 substrate protein remaining % (IKZF2; [4]) | IKZF 1 substrate protein remaining % (IKZF1; [4]) | CK1α substrate protein remaining % (CK1α; [4]) | inhibition at 0.01 µM [2] [%] | inhibition at 0.5 µM [2] [%] | GSPT1 substrate protein remaining % (GSPT1; [5]) | Wee1 substrate protein remaining % (WEE1; [5]) | IKZF3 substrate protein remaining % (IKZF3; [5]) | IKZF2 substrate protein remaining % (IKZF2; [5]) | IKZF 1 substrate protein remaining % (IKZF1; [5]) | CK1α substrate protein remaining % (CK1α; [5]) | IC50 [3] [nM] | IC50 [1] [µM] | inhibition at 0.01 µM [3] [%] | inhibition at 0.5 µM [3] [%]
1 | O=C1CCC(N2Cc3cc(CN4CCN(c5ncccc5F)CC4)ccc3C2=S)C(=O)N1 (centres unmarked) [GT-09220, 3-(5-((4-(3-fluoropyridin-2-yl)piperazin-1-yl)methyl)-1-thioxoisoindolin-2-yl)piperidine-2,6-dione] | B (80%< substrate protein remaining %≤ 100%) | 60 to 80 | 80 to 100 | A (0% ≤ substrate protein remaining % ≤ 80%) | B (80%< substrate protein remaining %≤ 100%) | A (0% ≤ substrate protein remaining % ≤ 80%) | A (0% ≤ substrate protein remaining % ≤ 80%) | B (80%< substrate protein remaining %≤ 100%) | 30 to 40 | 40 to 60 |  |  |  |  |  |  |  |  |  | 
2 | O=C1CCC(N2Cc3c(CN4CCC(c5c[nH]c6cc(F)ccc56)CC4)cccc3C2=S)C(=O)N1 (centres unmarked) [GT-08492, 3-(4-((4-(6-fluoro-1H-indol-3-yl)piperidin-1-yl)methyl)-1-thioxoisoindolin-2-yl)piperidine-2,6-dione] | B (80%< substrate protein remaining %≤ 100%) | 60 to 80 | 80 to 100 | A (0% ≤ substrate protein remaining % ≤ 80%) | B (80%< substrate protein remaining %≤ 100%) | B (80%< substrate protein remaining %≤ 100%) | B (80%< substrate protein remaining %≤ 100%) | B (80%< substrate protein remaining %≤ 100%) | 30 to 40 | 40 to 60 |  |  |  |  |  |  |  |  |  | 
3 | Cc1ccsc1C1CCN(Cc2cccc3c2CN(C2CCC(=O)NC2=O)C3=S)CC1 (centres unmarked) [GT-08314, 3-(4-((4-(3-methylthiophen-2-yl)piperidin-1-yl)methyl)-1-thioxoisoindolin-2-yl)piperidine-2,6-dione] |  | 40 to 53 | 60 to 80 |  |  |  |  |  | 40 to 60 | 60 to 80 | B (80%< substrate protein remaining %≤ 100%) | A (0% ≤ substrate protein remaining % ≤ 80%) | B (80%< substrate protein remaining %≤ 100%) | B (80%< substrate protein remaining %≤ 100%) | B (80%< substrate protein remaining %≤ 100%) | B (80%< substrate protein remaining %≤ 100%) |  |  |  | 
4 | Cc1csc2ncnc(N3CCN(Cc4ccc5c(c4)CN(C4CCC(=O)NC4=O)C5=S)CC3)c12 (centres unmarked) [GT-09281, 3-(5-((4-(5-methylthieno[2,3-d]pyrimidin-4-yl)piperazin-1-yl)methyl)-1-thioxoisoindolin-2-yl)piperidine-2,6-dione] |  | 80 to 100 | 80 to 100 |  |  |  |  |  | 25 to 30 | 40 to 60 |  |  |  |  |  |  |  |  |  | 
5 | O=C1CCC(N2Cc3c(CN4CCC(c5ccccc5)CC4)cccc3C2=S)C(=O)N1 (centres unmarked) [GT-08506, 3-(4-((4-phenylpiperidin-1-yl)methyl)-1-thioxoisoindolin-2-yl)piperidine-2,6-dione] | A (0% ≤ substrate protein remaining % ≤ 80%) |  |  | A (0% ≤ substrate protein remaining % ≤ 80%) | A (0% ≤ substrate protein remaining % ≤ 80%) | A (0% ≤ substrate protein remaining % ≤ 80%) | B (80%< substrate protein remaining %≤ 100%) | B (80%< substrate protein remaining %≤ 100%) | 30 to 40 | 40 to 60 |  |  |  |  |  |  |  |  |  | 
6 | CC1(C)CCC(CN2CCN(Cc3cccc4c3CN(C3CCC(=O)NC3=O)C4=S)CC2)=C(c2ccc(Cl)cc2)C1 (centres unmarked) [GT-08303, 3-(4-((4-((4'-chloro-5,5-dimethyl-3,4,5,6-tetrahydro-[1,1'-biphenyl]-2-yl)methyl)piperazin-1-yl)methyl)-1-thioxoisoindolin-2-yl)piperidine-2,6-dione] |  | 30 to 40 | 60 to 80 |  |  |  |  |  | 40 to 60 | 40 to 60 |  |  |  |  |  |  |  |  |  | 
7 | O=C1CCC(N2Cc3cc(CN4CCN(c5cccnc5)CC4)ccc3C2=S)C(=O)N1 (centres unmarked) [GT-09229, 3-(5-((4-(pyridin-3-yl)piperazin-1-yl)methyl)-1-thioxoisoindolin-2-yl)piperidine-2,6-dione] |  | 60 to 80 | 80 to 100 |  |  |  |  |  | 40 to 60 | 40 to 60 |  |  |  |  |  |  |  |  |  | 
8 | O=C1CCC(N2Cc3cc(CN4CCN(c5ccnc(F)c5F)CC4)ccc3C2=S)C(=O)N1 (centres unmarked) [GT-09242, 3-(5-((4-(2,3-difluoropyridin-4-yl)piperazin-1-yl)methyl)-1-thioxoisoindolin-2-yl)piperidine-2,6-dione] |  | 60 to 80 | 80 to 100 |  |  |  |  |  | 60 to 80 | 30 to 40 |  |  |  |  |  |  |  |  |  | 
9 | O=C1CCC(N2Cc3cc(CN4CCN(C(c5ccccc5)c5ccccn5)CC4)ccc3C2=S)C(=O)N1 (centres unmarked) [GT-05103, 3-(5-((4-(phenyl(pyridin-2-yl)methyl)piperazin-1-yl)methyl)-1-thioxoisoindolin-2-yl)piperidine-2,6-dione] | A (0% ≤ substrate protein remaining % ≤ 80%) |  |  | B (80%< substrate protein remaining %≤ 100%) | B (80%< substrate protein remaining %≤ 100%) | B (80%< substrate protein remaining %≤ 100%) | B (80%< substrate protein remaining %≤ 100%) | B (80%< substrate protein remaining %≤ 100%) |  |  |  |  |  |  |  |  | 10 to 50 | 0.1 to 0.5 |  | 
10 | O=C1CCC(N2Cc3cc(CN4CCN(c5ncc(Cl)cc5Cl)CC4)ccc3C2=S)C(=O)N1 (centres unmarked) [GT-09226, 3-(5-((4-(3,5-dichloropyridin-2-yl)piperazin-1-yl)methyl)-1-thioxoisoindolin-2-yl)piperidine-2,6-dione] |  | 60 to 80 | 80 to 100 |  |  |  |  |  | 30 to 40 | 40 to 60 |  |  |  |  |  |  |  |  |  | 
11 | Cc1cscc1C1CCN(Cc2ccc3c(c2)CN(C2CCC(=O)NC2=O)C3=S)CC1 (centres unmarked) [GT-05146, 3-(5-((4-(4-methylthiophen-3-yl)piperidin-1-yl)methyl)-1-thioxoisoindolin-2-yl)piperidine-2,6-dione] | A (0% ≤ substrate protein remaining % ≤ 80%) |  |  | A (0% ≤ substrate protein remaining % ≤ 80%) | B (80%< substrate protein remaining %≤ 100%) | B (80%< substrate protein remaining %≤ 100%) | A (0% ≤ substrate protein remaining % ≤ 80%) | B (80%< substrate protein remaining %≤ 100%) |  |  |  |  |  |  |  |  | 100 to 500 | 0.1 to 0.5 |  | 
12 | Cc1cc2c(C3=CCN(Cc4cccc5c4CN(C4CCC(=O)NC4=O)C5=S)CC3)ncnc2s1 (centres unmarked) [GT-08947, 3-(4-((4-(6-methylthieno[2,3-d]pyrimidin-4-yl)-3,6-dihydropyridin-1(2H)-yl)methyl)-1-thioxoisoindolin-2-yl)piperidine-2,6-dione] |  | 60 to 80 | 80 to 100 |  |  |  |  |  |  |  | B (80%< substrate protein remaining %≤ 100%) | A (0% ≤ substrate protein remaining % ≤ 80%) | B (80%< substrate protein remaining %≤ 100%) | B (80%< substrate protein remaining %≤ 100%) | B (80%< substrate protein remaining %≤ 100%) | B (80%< substrate protein remaining %≤ 100%) |  |  | 30 to 40 | 40 to 50
13 | O=C1CCC(N2Cc3c(CN4CCN(c5cc(Cl)ccn5)CC4)cccc3C2=S)C(=O)N1 (centres unmarked) [GT-08695, 3-(4-((4-(4-chloropyridin-2-yl)piperazin-1-yl)methyl)-1-thioxoisoindolin-2-yl)piperidine-2,6-dione] | B (80%< substrate protein remaining %≤ 100%) | 60 to 80 | 80 to 100 | A (0% ≤ substrate protein remaining % ≤ 80%) | B (80%< substrate protein remaining %≤ 100%) | B (80%< substrate protein remaining %≤ 100%) | B (80%< substrate protein remaining %≤ 100%) | B (80%< substrate protein remaining %≤ 100%) |  |  |  |  |  |  |  |  |  |  | 20 to 30 | 40 to 50
14 | O=C1CCC(N2Cc3cc(CN4CCC(c5ccnc(F)c5F)CC4)ccc3C2=S)C(=O)N1 (centres unmarked) [GT-08473, 3-(5-((4-(2,3-difluoropyridin-4-yl)piperidin-1-yl)methyl)-1-thioxoisoindolin-2-yl)piperidine-2,6-dione] |  | 60 to 80 | 80 to 100 |  |  |  |  |  | 40 to 60 | 40 to 60 |  |  |  |  |  |  |  |  |  | 
